Measured values: patent US5863716A, “Treatment of plasmodium” (The Leland Stanford Junior University Board of Trustees, priority 1997, dated 1999)

System: tubovesicular membrane reticulum (TVM) of P. falciparum-infected erythrocytes
Experiment: Tubovesicular membrane (TVM) morphology, C5-DMB-ceramide labeling, confocal microscopy
Format: cell-based
Details: 5 μM
Experimental: Serial sections through P. falciparum-infected erythrocytes labeled with C5 -DMB-ceramide (4,4-difluoro-5,7-dimethyl-4-bora-3a,4a-diaza-5-indacene-3-pentanoyl)-sphingosine) 12 h (rings) and 36 h (trophozoites) after invasion.
Schizont-stage parasites isolated over Percoll were allowed to invade in the presence of RPMI 1640 containing 10% human serum or in the presence of RPMI 1640 containing 10% human serum and 5 μM PPMP. 1×10^8 infected erythrocytes of the appropriate stage were incubated in 1 ml of RPMI 1640 supplemented with 2mg/ml defatted BSA and 20 μM C5 -DMB-ceramide. Cells were washed and fixed as described in Example 5. Sequential micrographs were taken on a custom made laser confocal microscope at 400 nm intervals along the Z axis. Raw data were processed as described previously.

## CCCCCCCCCCCCCCCC(=O)N[C@H](CN1CCOCC1)[C@H](O)c1ccccc1 (relative stereo) [PPMP, dl-threo-1-phenyl-2-palmitoylamino-3-morpholino-1-propanol]
240 optical sections through 20 cells
  TVM morphology in rings formed in the presence of drug: markedly devoid of tubular connections
36 h in the life cycle
  intraerythrocytic structures at 36 h in continued presence of drug: remain as isolated spots
